Marks after values point to notes of the source that are not given here.
Columns and labels:
[1] = target: T1, human 5-HT1A receptor (Homo sapiens, UniProt P08908); assay: cAMP HTRF functional assay, 5-HT1A agonist mode; assay type: cell-based; conditions: for 5-HT1A functional character: agonist mode, summary of Tables 4-5; for Top % Activation at maximal concentration, 5-HT1A (agonist mode): cAMP, % of reference agonist activity at its EC100
T1 sequence (P08908 1-422): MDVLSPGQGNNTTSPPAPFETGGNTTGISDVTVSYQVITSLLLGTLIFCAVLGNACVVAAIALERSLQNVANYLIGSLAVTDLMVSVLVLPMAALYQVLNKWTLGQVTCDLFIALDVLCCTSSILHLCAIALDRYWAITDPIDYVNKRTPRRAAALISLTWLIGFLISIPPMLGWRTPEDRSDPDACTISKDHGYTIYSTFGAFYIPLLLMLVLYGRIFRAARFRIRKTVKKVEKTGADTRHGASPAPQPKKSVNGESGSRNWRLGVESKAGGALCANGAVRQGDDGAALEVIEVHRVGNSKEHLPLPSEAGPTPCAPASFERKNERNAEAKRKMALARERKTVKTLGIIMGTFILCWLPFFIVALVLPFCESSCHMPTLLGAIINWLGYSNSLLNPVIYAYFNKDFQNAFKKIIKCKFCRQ
Procedure: (§1) Example 4—Agonist or Antagonist Activity on Recombinant Human Dopamine and Serotonin Receptors Using IPOne HTRF and cAMP HTRF Assays
(§2) IP-One and cAMP HTRF assays are conducted with recombinant cell lines.
(§3) Agonist activity of test compounds is expressed as a percentage of the activity of the reference agonist at its EC100 concentration. Antagonist activity of the test compound is expressed as a percentage of the inhibition of reference agonist activity at its EC80 concentration.

[2] = target: T2, 5-HT2A receptor (Homo sapiens, UniProt P28223); assay: IP-One HTRF functional assay, 5-HT2A agonist mode; assay type: cell-based; parameters: expressed in transfected cells; conditions: % of reference agonist activity at its EC100
Procedure: as §1, §2, §3

[3] = target: T2, 5-HT2A receptor; assay type: binding

T2 sequence (P28223 whole entry): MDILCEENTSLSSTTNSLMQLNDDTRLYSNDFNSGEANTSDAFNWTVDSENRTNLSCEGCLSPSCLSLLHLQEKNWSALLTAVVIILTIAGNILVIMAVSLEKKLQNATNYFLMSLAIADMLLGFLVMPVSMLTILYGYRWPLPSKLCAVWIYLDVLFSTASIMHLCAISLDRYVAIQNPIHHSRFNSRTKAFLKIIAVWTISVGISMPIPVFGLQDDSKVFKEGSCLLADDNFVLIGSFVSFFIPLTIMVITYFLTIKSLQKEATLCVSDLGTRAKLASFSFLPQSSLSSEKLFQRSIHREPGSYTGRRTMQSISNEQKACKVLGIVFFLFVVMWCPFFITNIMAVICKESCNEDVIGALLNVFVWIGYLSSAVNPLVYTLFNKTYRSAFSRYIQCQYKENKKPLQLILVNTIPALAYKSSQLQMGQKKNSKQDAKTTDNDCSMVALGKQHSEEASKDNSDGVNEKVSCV

Structure (SMILES)	5-HT1A functional character [1]	Top % Activation at maximal concentration, 5-HT1A (agonist mode) [1]	Top % Activation at maximal concentration, 5-HT2A (agonist mode) [2]	binding to the 5-HT2A receptor in vitro [3]
[2H]c1c([2H])c([2H])c(CN2CC[C@@H](NC(=O)c3cc(Cl)c(NC)cc3OC)[C@H]2C)c([2H])c1[2H] [Ex. 1 (10), 5-Chloro-N-((2R,3R)-1-((pentadeuterophenyl)methyl)-2-methylpyrrolidin-3-yl)-2-methoxy-4-(methylamino)benzamide]	strong 5-HT1A agonist	71^d %	84^d %	–
[2H]C([2H])([2H])Oc1cc(NC)c(Cl)cc1C(=O)N[C@@H]1CCN(Cc2ccccc2)[C@@H]1C [Ex. 2 (18), 5-Chloro-N-((2R,3R)-1-((phenyl)methyl)-2-methylpyrrolidin-3-yl)-2-trideuteromethoxy-4-(methylamino)benzamide]	5-HT1A partial agonist	59%	94%	–
CCN1CCC[C@@H]1CNC(=O)c1c(OC)ccc(Br)c1OC [R-remoxipride]	–	–	–	do not even bind
CCN1CCC[C@H]1CNC(=O)c1c(OC)ccc(Br)c1OC [S-remoxipride]	–	–	–	do not even bind

From patent publication US12365650B2, “Deuterated organic compounds and uses thereof” (ENGRAIL THERAPEUTICS, INC., priority 2023, dated 2025)
